# Source: US12673936B2, “Isoindolinone compounds, and uses thereof” (HANGZHOU GLUBIO PHARMACEUTICAL CO., LTD., priority 2021, dated 2026)
# What was measured:
# HiBiT tagged CK1α = HiBiT tagged CK1α (Homo sapiens, UniProt P48729+Q96SW2); assay: CK1α degradation assay (HiBiT assay); assay type: cell-based; conditions: 20 hours; for Dmax: HT-1080, HT-1080 cells; for Dmax / HiBiT CK1α: Dmax: maximum CK1α degradation; for DC50 / HiBiT CK1α: Dmax: HT-1080 cells; for DC50: concentration at 50% CK1α degradation
# Sequence of HiBiT tagged CK1α (P48729 whole entry): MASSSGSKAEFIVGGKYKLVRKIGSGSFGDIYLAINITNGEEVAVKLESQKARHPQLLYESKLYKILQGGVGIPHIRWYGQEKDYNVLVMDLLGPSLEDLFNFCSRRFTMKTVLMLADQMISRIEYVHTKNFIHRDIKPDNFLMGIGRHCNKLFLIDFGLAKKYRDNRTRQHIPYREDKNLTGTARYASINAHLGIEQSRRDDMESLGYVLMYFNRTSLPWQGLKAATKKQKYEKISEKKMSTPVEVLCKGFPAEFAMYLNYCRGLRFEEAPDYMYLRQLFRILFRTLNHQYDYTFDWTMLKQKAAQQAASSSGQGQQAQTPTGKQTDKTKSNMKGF
# Sequence of HiBiT tagged CK1α (Q96SW2 whole entry): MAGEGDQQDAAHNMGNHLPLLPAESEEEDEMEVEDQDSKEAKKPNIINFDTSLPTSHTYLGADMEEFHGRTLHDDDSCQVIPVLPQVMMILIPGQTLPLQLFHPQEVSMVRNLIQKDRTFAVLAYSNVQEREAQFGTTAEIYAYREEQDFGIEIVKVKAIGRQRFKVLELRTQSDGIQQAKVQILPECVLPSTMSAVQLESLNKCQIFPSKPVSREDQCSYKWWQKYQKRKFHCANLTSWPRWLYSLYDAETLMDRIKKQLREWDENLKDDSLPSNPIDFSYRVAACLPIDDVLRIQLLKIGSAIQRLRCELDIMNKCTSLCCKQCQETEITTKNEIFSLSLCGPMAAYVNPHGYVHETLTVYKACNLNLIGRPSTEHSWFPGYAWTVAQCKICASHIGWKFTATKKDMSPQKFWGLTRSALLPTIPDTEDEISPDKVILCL
# Sequence of HiBiT tagged CK1α (Q16531 whole entry partner): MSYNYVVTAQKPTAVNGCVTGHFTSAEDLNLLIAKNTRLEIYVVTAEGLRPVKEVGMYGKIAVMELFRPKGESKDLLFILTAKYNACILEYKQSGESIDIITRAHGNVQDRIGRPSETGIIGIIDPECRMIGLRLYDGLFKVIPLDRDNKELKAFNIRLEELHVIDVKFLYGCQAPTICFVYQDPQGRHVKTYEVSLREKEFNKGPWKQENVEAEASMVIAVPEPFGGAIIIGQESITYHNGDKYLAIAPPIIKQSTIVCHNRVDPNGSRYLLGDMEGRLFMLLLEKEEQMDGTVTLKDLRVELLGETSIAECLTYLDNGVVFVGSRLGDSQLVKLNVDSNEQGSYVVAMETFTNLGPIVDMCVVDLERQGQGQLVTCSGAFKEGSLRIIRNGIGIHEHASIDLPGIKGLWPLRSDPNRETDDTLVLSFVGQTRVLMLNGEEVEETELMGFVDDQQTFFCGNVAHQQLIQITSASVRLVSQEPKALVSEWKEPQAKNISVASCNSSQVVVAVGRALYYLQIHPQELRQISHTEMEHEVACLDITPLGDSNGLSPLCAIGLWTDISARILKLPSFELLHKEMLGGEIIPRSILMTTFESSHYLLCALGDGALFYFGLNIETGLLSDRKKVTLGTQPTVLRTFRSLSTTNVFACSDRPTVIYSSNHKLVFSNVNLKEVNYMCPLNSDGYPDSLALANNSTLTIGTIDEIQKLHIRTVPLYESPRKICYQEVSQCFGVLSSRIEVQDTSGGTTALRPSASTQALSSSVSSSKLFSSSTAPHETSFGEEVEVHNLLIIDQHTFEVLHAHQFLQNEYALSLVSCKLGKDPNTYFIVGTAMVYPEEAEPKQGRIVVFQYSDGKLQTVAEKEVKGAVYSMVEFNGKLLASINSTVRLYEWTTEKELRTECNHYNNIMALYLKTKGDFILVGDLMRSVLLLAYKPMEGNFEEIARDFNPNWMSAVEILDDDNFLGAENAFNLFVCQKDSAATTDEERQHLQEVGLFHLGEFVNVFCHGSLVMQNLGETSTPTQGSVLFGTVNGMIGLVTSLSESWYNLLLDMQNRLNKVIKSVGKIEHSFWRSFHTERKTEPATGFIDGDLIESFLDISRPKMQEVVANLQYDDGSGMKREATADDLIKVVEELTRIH
# Method: (§1) CK1α and GSPT1 Degradation Assay (HiBiT Assay) The following is an example of an assay that can be used to determine the dose-dependent CK1α and GSPT1 degradation activities of test compounds in a human cell line such as HT-1080 ([…]). HT-1080 cells stably overexpressing wild-type CRBN, GSPT1A(1-138)/G575N mutant and HiBiT tagged CK1α or GSPT1 were seeded into 384-well plates (Cat #3764, Corning) pre-spotted with DMSO or test compounds. Increasing concentrations of test compounds (ranging from 3.162×10^-4 μM to 10 μM at a 3.16-fold increment) or DMSO were dispensed into an empty 384-well plate using an Echo Acoustic Liquid Handler (Beckman Coulter). About 10,000 cells in complete DMEM cell culture media were seeded per well. […] Luminescence was then measured with an EnVision plate reader (PerkinElmer) or a PHERAstar plate reader (BMG Labtech). All CK1α or GSPT1 degradation curves were processed using Collaborative Drug Discovery Vault softwares (Burlingame, CA., www.collaborativedrug.com). CK1α or GSPT1 levels in compound-treated wells were normalized to that of DMSO control and expressed as Percent of Control (PoC, y). […]
# HiBiT tagged GSPT1 = HiBiT tagged GSPT1 (Homo sapiens, UniProt P15170+Q96SW2); assay: GSPT1 degradation assay (HiBiT assay); assay type: cell-based; conditions: for Dmax: HT-1080, HT-1080 cells; for Dmax / HiBiT GSPT1: Dmax: 20 hours, maximum GSPT1 degradation
# Sequence of HiBiT tagged GSPT1 (P15170 whole entry): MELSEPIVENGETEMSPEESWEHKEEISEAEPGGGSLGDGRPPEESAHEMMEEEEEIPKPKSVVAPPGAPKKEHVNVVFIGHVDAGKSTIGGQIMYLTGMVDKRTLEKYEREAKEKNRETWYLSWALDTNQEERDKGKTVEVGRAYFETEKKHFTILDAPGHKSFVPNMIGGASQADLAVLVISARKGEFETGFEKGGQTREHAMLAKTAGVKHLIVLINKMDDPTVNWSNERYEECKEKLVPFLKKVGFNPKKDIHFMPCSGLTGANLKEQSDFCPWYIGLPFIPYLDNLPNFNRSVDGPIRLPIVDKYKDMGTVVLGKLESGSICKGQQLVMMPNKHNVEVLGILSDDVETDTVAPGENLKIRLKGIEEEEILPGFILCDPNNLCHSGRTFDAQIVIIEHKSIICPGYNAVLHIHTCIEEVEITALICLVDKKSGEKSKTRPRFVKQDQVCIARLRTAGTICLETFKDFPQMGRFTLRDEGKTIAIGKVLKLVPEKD
# Sequence of HiBiT tagged GSPT1 (Q96SW2 whole entry): as the sequence (Q96SW2 whole entry) above
# Sequence of HiBiT tagged GSPT1 (Q16531 whole entry partner): as the sequence (Q16531 whole entry partner) above
# Method: as §1
SMILES,Dmax (HiBiT tagged CK1α) [%],DC50 (HiBiT tagged CK1α) [nM],Dmax (HiBiT tagged GSPT1) [%],HiBiT CK1α: Dmax (HiBiT tagged CK1α) [%],HiBiT GSPT1: Dmax (HiBiT tagged GSPT1; HT-1080 cells) [%],GSPT1 degradation (in words) (HiBiT tagged GSPT1; HT-1080 cells)
"Cc1cccc([C@H](NC(=O)c2ccc3c(c2)CN(C2CCC(=O)NC2=O)C3=O)C2CC2)c1 (stereo in doubt) [Compound 29, N-((*R)-cyclopropyl(m-tolyl)methyl)-2-(2,6-dioxopiperidin-3-yl)-1-oxoisoindoline-5-carboxamide]",58.8,553,22,,,
"O=C1CCC(N2Cc3cc(C(=O)N[C@@H](c4c(F)cccc4Cl)C4CCC4)ccc3C2=O)C(=O)N1 (stereo in doubt) [Compound 70, N-((*R)-(2-chloro-6-fluorophenyl)(cyclobutyl)methyl)-2-(2,6-dioxopiperidin-3-yl)-1-oxoisoindoline-5-carboxamide]",,50.3,,73.9,58,
"O=C1CC[C@H](N2Cc3cc(C(=O)N[C@H](c4ccc(F)c(F)c4)C4CCC4)ccc3C2=O)C(=O)N1 (racemic) [Compound 48, N-((*S)-cyclobutyl(3,4-difluorophenyl)methyl)-2-((S)-2,6-dioxopiperidin-3-yl)-1-oxoisoindoline-5-carboxamide]",,130,,66.2,26.2,
"O=C1CCC(N2Cc3cc(C(=O)N[C@H](c4cccc(C(F)(F)F)c4)C4CC4)ccc3C2=O)C(=O)N1 (stereo in doubt) [Compound 34, N-((*S)-cyclopropyl(3-(trifluoromethyl)phenyl)methyl)-2-(2,6-dioxopiperidin-3-yl)-1-oxoisoindoline-5-carboxamide]",59.5,446,25.8,,,
"O=C1CCC(N2Cc3cc(C(=O)NC(c4c(F)cccc4F)C4CCC4)ccc3C2=O)C(=O)N1 (centres unmarked) [Compound 22, N-(cyclobutyl(2,6-difluorophenyl)methyl)-2-(2,6-dioxopiperidin-3-yl)-1-oxoisoindoline-5-carboxamide]",70.7,79.7,48.3,,,
"Cc1ccc(NC(=O)NCc2ccc3c(c2)CN(C2CCC(=O)NC2=O)C3=O)cc1Cl (centres unmarked) [CC-885, reference compound]",53.7,653,92.5,,,effectively degraded GSPT1
"N#Cc1cccc(C(NC(=O)c2ccc3c(c2)CN(C2CCC(=O)NC2=O)C3=O)C2CC2)c1 (centres unmarked) [Compound 44, N-((3-cyanophenyl)(cyclopropyl)methyl)-2-(2,6-dioxopiperidin-3-yl)-1-oxoisoindoline-5-carboxamide]",49.5,,22.5,,,
"O=C1CCC(N2Cc3cc(C(=O)N[C@H](c4ncc(F)cc4Cl)C4CCC4)ccc3C2=O)C(=O)N1 (stereo in doubt) [Compound 81, N-((*S)-(3-chloro-5-fluoropyridin-2-yl)(cyclobutyl)methyl)-2-(2,6-dioxopiperidin-3-yl)-1-oxoisoindoline-5-carboxamide]",62.1,153,18.4,,,
"O=C1CCC(N2Cc3cc(C(=O)N[C@@H](c4ccc(F)cc4)C4CCC4)ccc3C2=O)C(=O)N1 (stereo in doubt) [Compound 75, N-((*R)-cyclobutyl(4-fluorophenyl)methyl)-2-(2,6-dioxopiperidin-3-yl)-1-oxoisoindoline-5-carboxamide]",50.4,3880,24.1,,,
"O=C1CCC(N2Cc3cc(C(=O)NC(c4ccc(F)cc4Cl)C4CCC4)ccc3C2=O)C(=O)N1 (centres unmarked) [Compound 19, N-((2-chloro-4-fluorophenyl)(cyclobutyl)methyl)-2-(2,6-dioxopiperidin-3-yl)-1-oxoisoindoline-5-carboxamide]",69.6,65.9,43,,,
"O=C1CCC(N2Cc3cc(C(=O)N[C@@H](c4ccc(Cl)cn4)C4CCC4)ccc3C2=O)C(=O)N1 (stereo in doubt) [Compound 77, N—((*R)-(5-chloropyridin-2-yl)(cyclobutyl)methyl)-2-(2,6-dioxopiperidin-3-yl)-1-oxoisoindoline-5-carboxamide]",,,,41.1,23.5,
"O=C1CC[C@@H](N2Cc3cc(C(=O)NC(c4ccc(F)c(F)c4)C4CCC4)ccc3C2=O)C(=O)N1 (single isomer, unassigned) [Compound 49, N-((*S)-cyclobutyl(3,4-difluorophenyl)methyl)-2-((R)-2,6-dioxopiperidin-3-yl)-1-oxoisoindoline-5-carboxamide]",68.6,112,28.6,,,
"O=C1CCC(N2Cc3cc(C(=O)N[C@H](c4cccc(Cl)c4)C4CC4)ccc3C2=O)C(=O)N1 (stereo in doubt) [Compound 28, N-((*S)-(3-chlorophenyl)(cyclopropyl)methyl)-2-(2,6-dioxopiperidin-3-yl)-1-oxoisoindoline-5-carboxamide]",60.1,1150,70.8,,,
"O=C1CCC(N2Cc3cc(C(=O)N[C@H](c4ncccc4F)C4CCC4)ccc3C2=O)C(=O)N1 (stereo in doubt) [Compound 24, N-((*S)-cyclobutyl(3-fluoropyridin-2-yl)methyl)-2-(2,6-dioxopiperidin-3-yl)-1-oxoisoindoline-5-carboxamide]",,363,,63.2,63.1,
"O=C1CC[C@@H](N2Cc3cc(C(=O)NC(c4ccc(F)cc4)C4CCCC4)ccc3C2=O)C(=O)N1 (single isomer, unassigned) [Compound 62, N-((*S)-cyclopentyl(4-fluorophenyl)methyl)-2-((R)-2,6-dioxopiperidin-3-yl)-1-oxoisoindoline-5-carboamide]",69.8,77.7,27.5,,,
"O=C1CC[C@@H](N2Cc3cc(C(=O)N[C@H](c4ccc(Cl)cc4F)C4CCC4)ccc3C2=O)C(=O)N1 (racemic) [Compound 56, N-((*S)-(4-chloro-2-fluorophenyl)(cyclobutyl)methyl)-2-((*R)-2,6-dioxopiperidin-3-yl)-1-oxoisoindoline-5-carboxamide]",,93.7,,63.6,15.3,
"O=C1CCC(N2Cc3cc(C(=O)NC(c4ccc(Cl)cc4F)C4CC4)ccc3C2=O)C(=O)N1 (centres unmarked) [Compound 14, N-((4-chloro-2-fluorophenyl)(cyclopropyl)methyl)-2-(2,6-dioxopiperidin-3-yl)-1-xoisoindoline-5-carboxamide]",67.1,284,45.5,,,
"O=C1CC[C@H](N2Cc3cc(C(=O)N[C@H](c4ccc(F)c(F)c4)C4CCC4)ccc3C2=O)C(=O)N1 (racemic) [Compound 46, N-((*R)-cyclobutyl(3,4-difluorophenyl)methyl)-2-((*S)-2,6-dioxopiperidin-3-yl)-1-oxoisoindoline-5-carboxamide]",54.6,1300,32.4,,,
"O=C1CCC(N2Cc3cc(C(=O)N[C@@H](c4ccc(Cl)cc4)C4CC4)ccc3C2=O)C(=O)N1 (stereo in doubt) [Compound 2, N—((*R)-(4-chlorophenyl)(cyclopropyl)methyl)-2-(2,6-dioxopiperidin-3-yl)-1-oxoisoindoline-5-carboxamide]",,180,,67,33.6,
"O=C1CCC(N2Cc3cc(C(=O)NC(c4ccc(F)cc4)C4CCCC4)ccc3C2=O)C(=O)N1 (centres unmarked) [Compound 37, N-(cyclopentyl(4-fluorophenyl)methyl)-2-(2,6-dioxopiperidin-3-yl)-1-oxoisoindoline-5-carboxamide]",70.8,72.7,36.2,,,
